{"source": "patent US20230414588A1", "about": "“COMPOSITIONS AND METHODS FOR TREATING PATIENTS WITH AMYOTROPHIC LATERAL SCLEROSIS (ALS)” (CURASEN THERAPEUTICS, INC., priority 2022, published 2023)", "key": {"[1]": {"experiment": "Cerebral blood flow / cerebral perfusion by MRI-ASL after clenbuterol (with or without nadolol) or pindolol", "settings": "for cerebral blood flow measured by MRI-ASL (FIG. 2): healthy volunteers, single dose, dose not stated in legend"}, "[2]": {"experiment": "Visual verbal learning test (VVLT)", "assay_type": "in vivo, human", "settings": "single dose; crossover study with placebo", "protocol": "The visual verbal learning test (VVLT) is a test for learning and memory (de Haas 2009). Subjects are presented 30 words on a screen, one at a time, for 1 second with a 1-second interval between words over a total of […]. This is repeated in 3 trials. After each trial, subjects are asked to recall as many words as they can. After the third trial, there is a delay of 2.5 hours and subjects are then tested once for delayed recall. […] The effect for clenbuterol is an improvement in approximately 1.5 to 2 correctly recalled words, which is clinically meaningful. Since this was a crossover study, everyone who completed Part A was dosed with the 3 agents plus placebo."}, "[3]": {"experiment": "Facial Expression Recognition Task (FERT), crossover study of clenbuterol with 1 mg nadolol vs placebo", "assay_type": "in vivo, human", "settings": "clenbuterol co-administered with low-dose nadolol vs placebo; patients", "from_the_text": "The Facial Expression Recognition Task (FERT) assesses the recognition of facial emotions. […] Different intensity levels of each emotion are presented, which increases the ambiguity of the facial expression and the sensitivity of the task."}, "[4]": {"experiment": "Adaptive tracking test (visuomotor coordination and vigilance)", "assay_type": "in vivo, human", "settings": "single dose 160 μg clenbuterol", "from_the_text": "Adaptive tracking measures visuomotor coordination and vigilance. In this test, the subject uses a joystick to move a small dot so that it stays within a continuously moving circle on a computer screen (Boland 1984). During the test, the speed of the circle is adjusted in response to the subject's ability to keep the dot in the circle, ensuring that the test is adapted to the individual subject. […] The improvement shown by subjects is in the same range as that seen with subjects treated with the acetylcholinesterase inhibitor donepezil, which is in clinical use for the treatment of mild to moderate AD (Groeneveld 2016)."}, "[5]": {"settings": "80 μg clenbuterol alone, single dose, patients"}, "[6]": {"experiment": "Immediate word recall test (CANTAB), crossover study of clenbuterol with 1 mg nadolol vs placebo", "assay_type": "in vivo, human", "settings": "80 μg clenbuterol with 1 mg nadolol once daily 14 days vs placebo; patients with neurodegenerative disorders", "from_the_text": "The immediate word recall test measures the ability to encode and subsequently retrieve verbal information. Eighteen (18) words are presented, and subjects are subsequently asked to recall them; this is repeated 2 times."}, "[7]": {"experiment": "CANTAB cognition battery, Cohort D2 (Compound 03-5 with 3 mg nadolol)", "assay_type": "in vivo, human", "protocol": "(§1) In Cohort D2, 8 healthy volunteers aged 55-75 years were admitted on Day −1 for a 5-day confinement period at the research facility. During this confinement, subjects received escalating doses of open label Compound 03-5 (1-10 mg) once-daily from Day 1 through Day 3 2 hours after pre-administration of open-label nadolol (3 mg) one each for the 3 dosing days according to the schematic in FIG. 17. Subjects remained in-residency until all study procedures are completed on Day 4.\nCompound 03-5 dose administration. Compound 03-5 was administered as escalating doses on Day 1 (1 mg), Day 2 (3 mg) and Day 3 (10 mg). CANTAB was conducted twice in all subjects on the day prior to start of dosing (Day −1) to familiarize subjects with the platform, and prior to dosing and approximately 3 hours after Compound 03-5 administration on Days 1, 2, and 3."}, "[8]": {"experiment": "Peripheral effects (heart rate by ECG, potassium, glucose) of Compound 03-5 with or without nadolol in healthy volunteers", "assay_type": "in vivo, human", "protocol": "Healthy volunteers were enrolled into 2 cohorts in a study to undertake within-subject dose titration of Compound 03-5 and/or nadolol in order to explore doses/dose combinations that mitigate peripheral effects of Compound 03-5, e.g. on heart rate, while preserving possible central effects of Compound 03-5 on cerebral perfusion and pupillary light reflex.\nEight healthy subjects aged 18-50 years were enrolled into Cohort D1 and received escalating doses of Compound 03-5 (3-12 mg) administered once daily 2 hours follow pre-administration of nadolol (1-40 mg). On all dosing days, study drug(s) were administered orally after an overnight fast of at least 8 hours.\nas §1"}, "[9]": {"experiment": "Cerebral blood flow after a single dose of Compound 03-5 with or without nadolol", "assay_type": "in vivo, human", "settings": "single dose Compound 03-5 in the absence or presence of 3 mg nadolol", "from_the_text": "Data are plotted as mean (±SEM) percent change in cerebral blood flow from baseline in brain regions of interest for movement (the precentral gyrus) and mood, anhedonia and cognition (hippocampus, thalamus, amygdala)."}, "[10]": {"settings": "monotherapy Compound 03-5 0.3-6 mg, healthy volunteers"}}, "note": "Entries after “also recorded” stand apart in the source; their conditions may differ."}
{"molecule": "CC(C)(C)NCC(O)c1cc(Cl)c(N)c(Cl)c1", "note": "(centres unmarked) [clenbuterol]", "values": [{"measurement": "cerebral perfusion increase as measured by CBF", "setting": "[1]; clenbuterol 40 μg", "value": "minimal increase"}, {"measurement": "improvements in perfusion in brain areas relevant to neurodegenerative disorders", "setting": "[1]; clenbuterol 80 and 160 μg", "value": "~25", "unit": "%"}, {"measurement": "increase in cerebral perfusion, precentral gyrus", "setting": "[1]; clenbuterol 80 and 160 μg", "value": "20-40%"}, {"measurement": "cerebral perfusion increase as measured by CBF", "setting": "[1]; clenbuterol doses below 30 μg", "value": "do not produce significant cerebral perfusion increases"}, {"measurement": "cerebral blood flow measured by MRI-ASL (FIG. 2)", "setting": "[1]", "value": "increases"}, {"measurement": "cerebral blood flow from the baseline", "setting": "[1]; patients, single dose clenbuterol 30 to 160 μg and/or nadolol 5 mg, tracked 3 days", "value": "robust global increase"}, {"measurement": "increase in hippocampal perfusion, average", "setting": "[1]; single dose 80 μg clenbuterol, 6 healthy subjects, ROI hippocampus", "value": 25, "unit": "%"}, {"measurement": "cerebral blood flow (CBF) / cerebral perfusion relative to baseline", "setting": "[1]; single dose clenbuterol 160 μg", "value": "global increases; also recorded: robust global increase; also recorded: robust, global increase"}, {"measurement": "cerebral blood flow (CBF) relative to baseline", "setting": "[1]; single dose clenbuterol 160 μg with nadolol 5 mg", "value": "global increases; also recorded: robust global increase"}, {"measurement": "cerebral blood flow (CBF) relative to baseline", "setting": "[1]; single dose clenbuterol 20 to 160 μg, tracked 3 days", "value": "robust global increase"}, {"measurement": "effect on VVLT / number of words recalled correctly", "setting": "[2]", "value": "improvements in cognition; also recorded: positive effects"}, {"measurement": "accuracy of correctly identifying happy facial expressions (FERT)", "setting": "[3]", "value": "statistically significant increase"}, {"measurement": "performance in adaptive tracking (percent time dot kept within moving circle)", "setting": "[4]", "value": "improved performance; also recorded: improves"}, {"measurement": "cognition as measured by adaptive tracking and word recall", "setting": "[4]; healthy subjects, preliminary data", "value": "improves cognition"}, {"measurement": "glucose in the blood, change from baseline", "setting": "[5]", "value": "increases"}, {"measurement": "heart rate, change from baseline", "setting": "[5]", "value": "increases"}, {"measurement": "potassium in the blood, change from baseline", "setting": "[5]", "value": "decreases"}, {"measurement": "number of words correctly recalled, immediate verbal recall", "setting": "[6]", "value": "statistically significant increase"}]}
{"molecule": "CC(C)(C)NC[C@H](O)c1cccc(C#N)n1", "note": "[Compound 03-5, (S)-6-(2-(tert-butylamino)-1-hydroxyethyl)picolinonitrile]", "values": [{"measurement": "cognition, performance in CANTAB battery", "setting": "[7]; Cohort D2, Compound 03-5 1, 3 and 10 mg on Days 1, 2, 3 with 3 mg nadolol, healthy adults 55-75 years", "value": "Improvements in cognition; also recorded: improvements in performance"}, {"measurement": "mean maximum increase in heart rate", "setting": "[8]; 6 mg Compound 03-5 after pre-administration of 1 mg nadolol", "value": 7, "unit": "beats per minute"}, {"measurement": "blood potassium concentrations", "setting": "[8]; [10]", "value": "dose-dependent decreases"}, {"measurement": "heart rate, change from baseline (triplicate ECG)", "setting": "[8]; [10]", "value": "dose-dependent increases"}, {"measurement": "cerebral blood flow from baseline (precentral gyrus, hippocampus, thalamus, amygdala)", "setting": "[9]", "value": "robust, global increases"}]}
{"molecule": "CC(C)NCC(O)COc1cccc2[nH]ccc12", "note": "(centres unmarked) [pindolol]", "values": [{"measurement": "cerebral blood flow measured by MRI-ASL (FIG. 2)", "setting": "[1]", "value": "lack of increase"}]}
{"molecule": "CC(C)(C)NCC(O)c1ccc(O)c(CO)c1", "note": "(centres unmarked) [salbutamol]", "values": [{"measurement": "effect on VVLT / number of words recalled correctly", "setting": "[2]", "value": "improvements in cognition; also recorded: positive effects"}]}
{"molecule": "CC(C)(C)NCC(O)COc1cccc2c1CC(O)C(O)C2", "note": "(centres unmarked) [nadolol]", "values": [{"measurement": "effect of nadolol on pro-cognitive central effects of the β2-AR agonist", "setting": "[7]; low dose nadolol 3 mg", "value": "without inhibiting"}, {"measurement": "effect of nadolol on blood potassium decrease induced by Compound 03-5", "setting": "[8]; 3 mg nadolol, cohort D2", "value": "inhibited"}, {"measurement": "effect of nadolol on heart rate increase induced by Compound 03-5", "setting": "[8]; 3 mg nadolol, cohort D2", "value": "inhibited"}, {"measurement": "effect of nadolol on peripheral effects of Compound 03-5 (heart rate, glucose, potassium, tachycardia, tremor, palpitations)", "setting": "[8]; Cohort D1, nadolol 1 mg up to 40 mg, Compound 03-5 3-12 mg", "value": "blocked"}, {"measurement": "effect of nadolol on peripheral effects of Compound 03-5 (heart rate, glucose, potassium)", "setting": "[8]; Cohort D2, nadolol 3 mg, Compound 03-5 1-10 mg", "value": "blocked"}, {"measurement": "effect of nadolol on heart rate increase, hyperglycemia and hypokalemia of Compound 03-5", "setting": "[8]; Cohort D2 and other cohorts, 1 mg nadolol pre-administered, Compound 03-5 oral up to 6 mg", "value": "substantially attenuated"}, {"measurement": "effect of nadolol on effects of Compound 03-5 on blood glucose and potassium, tachycardia, tremor and palpitations", "setting": "[8]; pre-administration of 1 mg nadolol, earlier cohorts", "value": "attenuation"}]}
